Data: patent US11629171B2, “Beta-hairpin peptidomimetics” (POLYPHOR AG, priority 2017, dated 2023)
≈ marks a conversion by molar mass, not a printed value. Where a SMILES comes first, the peptide text is derived from it. Bridges are numbered along the chain shown (N, C = ends). Roman numbers before positions name the chains, in order. [ ]: non-standard residue; d: D form. The star is where a group is joined. Pen = CC(C)(S)[C@H](N)C(=O)O; Tle = CC(C)(C)[C@H](N)C(=O)O; NMeV = CN[C@H](C(=O)O)C(C)C; Hiv = CC(C)[C@H](O)C(=O)O; Isovaleryl = CC(C)CC(=O)*; dDab = NCC[C@@H](N)C(=O)O; hSer = N[C@@H](CCO)C(=O)O; Orn = NCCC[C@H](N)C(=O)O; Dab = NCC[C@H](N)C(=O)O; Dap = NC[C@H](N)C(=O)O; NHCH2CH2OH = OCCN*

Legend:
Type in all cases: cell-based
[1] = system: Acinetobacter baumannii 872842; settings: 872842
How it was run: (§1)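 Broth microdilution per CLSI; MH-II (cation-adjusted) + 0.002% P-80 final; ~10^6 CFU/mL inoculum; 2-fold peptide series; 35° C, 18-20 h; MIC = no visible growth, μg/mL.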

[2] = system: Acinetobacter baumannii DSM 30008; settings: DSM 30008
How it was run: as §1

[3] = system: Enterobacter cloacae 848840; settings: 848840
How it was run: as §1

[4] = system: Escherichia coli 926415; settings: 926415
How it was run: as §1

[5] = system: Escherichia coli ATCC 25922; settings: ATCC 25922
How it was run: as §1

[6] = system: Klebsiella pneumoniae 968733; settings: 968733
How it was run: as §1

[7] = system: Klebsiella pneumoniae SSI #3010; settings: SSI #3010
How it was run: as §1

[8] = system: Pseudomonas aeruginosa ATCC 27853; settings: ATCC 27853
How it was run: as §1

[9] = system: human red blood cells (hRBC); test: Hemolysis; settings: red cells of human, 1 h, 200
How it was run: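 Washed fresh hRBC (20% v/v) were incubated with peptides at 200 μg/mL for 1 h at 37° C with shaking at 300 rpm. Supernatant OD540 was read after centrifugation and dilution, blank-corrected, and expressed as percent of the 2% Triton X-100 (100% lysis) control; PBS with 10% water gave 0%.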

MIC [1]	MIC [2]	MIC [3]	MIC [4]	MIC [5]	MIC [6]	MIC [7]	MIC [8]	Acinetobacter baumannii DSM 30008 MIC [2]	Escherichia coli ATCC 25922 MIC [5]	Klebsiella pneumoniae SSI #3010 MIC [7]	Pseudomonas aeruginosa ATCC 27853 MIC [8]	SMILES	Hemolysis at 200 μg/mL [9]
2 µg/mL (≈ 0.83 µM)	0.25 µg/mL (≈ 0.104 µM)	1 µg/mL (≈ 0.415 µM)	2 µg/mL (≈ 0.83 µM)	0.25 µg/mL (≈ 0.104 µM)	8 µg/mL (≈ 3.32 µM)	0.5 µg/mL (≈ 0.207 µM)	0.5 µg/mL (≈ 0.207 µM)	–	–	–	–	CN[C@H](C(=O)N[C@@H](CN)C(=O)N[C@@H](Cc1ccc(O)cc1)C(=O)N[C@@H]1C(=O)N[C@@H](CCC(=O)N[C@@H](CCN)C(=O)N[C@H](C(=O)N[C@@H](CCN)C(=O)N[C@H]2CCNC(=O)[C@H]([C@@H](C)O)NC(=O)[C@H](CCN)NC(=O)[C@H](CCN)NC(=O)[C@H](CC(C)C)NC(=O)[C@@H](CC(C)C)NC(=O)[C@H](CCN)NC2=O)[C@@H](C)O)C(=O)N[C@H](CCN)C(=O)N[C@@H]([C@@H](C)O)C(=O)N[C@@H](Cc2c[nH]c3ccccc23)C(=O)N[C@H](C(=O)N[C@H](C(=O)N[C@@H](C)C(=O)N[C@@H](CO)C(N)=O)C(C)(C)C)CSSC1(C)C)C(C)C [Ex. 181] (I: H-[NMeV][Dap]Y[Pen]E[dDab]TWC[Tle]AS-NH2 / II: [Dab]T[Dab][Dab][Dab][dL]L[Dab][Dab]T; disulfide I:4-I:9; amide I:5-II:N; lactam II:4-II:C)	<1%
0.0625 µg/mL (≈ 0.0262 µM)	–	0.0625 µg/mL (≈ 0.0262 µM)	0.25 µg/mL (≈ 0.105 µM)	–	0.125 µg/mL (≈ 0.0524 µM)	–	–	0.03125 µg/mL	0.03125 µg/mL	0.0625 µg/mL	0.125 µg/mL	CC(=O)N[C@H](C(=O)N[C@H]1CSSC[C@@H](C(=O)N[C@@H](CO)C(N)=O)NC(=O)[C@H](C(C)C)NC(=O)[C@H](CO)NC(=O)[C@H](Cc2c[nH]c3ccccc23)NC(=O)[C@H](CO)NC(=O)[C@@H](CCN)NC(=O)[C@H](CCC(=O)N[C@@H](CCN)C(=O)N[C@H](C(=O)N[C@@H](CN)C(=O)N[C@H]2CCNC(=O)[C@H]([C@@H](C)O)NC(=O)[C@H](CCN)NC(=O)[C@H](CCN)NC(=O)[C@H](C(C)C)NC(=O)[C@@H](CC(C)C)NC(=O)[C@H](CCN)NC2=O)[C@@H](C)O)NC(=O)[C@H](CCN)NC(=O)[C@H](Cc2ccc(O)cc2)NC1=O)C(C)C [Ex. 312] (I: Ac-VCY[Dab]E[dDab]SWSVCS-NH2 / II: [Dab]T[Dap][Dab][Dab][dL]V[Dab][Dab]T; disulfide I:2-I:11; amide I:5-II:N; lactam II:4-II:C)	<1%

More lines, now with the values behind:

SMILES	MIC [1]	MIC [2]	MIC [3]	MIC [4]	MIC [5]	MIC [6]	MIC [7]	MIC [8]	Acinetobacter baumannii DSM 30008 MIC [2]	Escherichia coli ATCC 25922 MIC [5]	Klebsiella pneumoniae SSI #3010 MIC [7]	Pseudomonas aeruginosa ATCC 27853 MIC [8]	Hemolysis at 200 μg/mL [9]
CC(C)CC(=O)N[C@H]1CSSC[C@@H](C(=O)NCCO)NC(=O)[C@H](C(C)(C)C)NC(=O)[C@H](CO)NC(=O)[C@H](Cc2c[nH]c3ccccc23)NC(=O)[C@H]([C@@H](C)O)NC(=O)[C@@H](CCN)NC(=O)[C@H](CCC(=O)N[C@@H](CCN)C(=O)N[C@H](C(=O)N[C@@H](CCN)C(=O)N[C@H]2CCNC(=O)[C@H]([C@@H](C)O)NC(=O)[C@H](CCN)NC(=O)[C@H](CCN)NC(=O)[C@H](CC(C)C)NC(=O)[C@@H](CC(C)C)NC(=O)[C@H](CCN)NC2=O)[C@@H](C)O)NC(=O)[C@H](CN)NC(=O)[C@H](Cc2ccc(O)cc2)NC1=O [Example 1] (I: Isovaleryl-CY[Dap]E[dDab]TWS[Tle]C-NHCH2CH2OH / II: [Dab]T[Dab][Dab][Dab][dL]L[Dab][Dab]T; disulfide I:1-I:10; amide I:4-II:N; lactam II:4-II:C)	1 µg/mL (≈ 0.43 µM)	0.125 µg/mL (≈ 0.0537 µM)	4 µg/mL (≈ 1.72 µM)	1 µg/mL (≈ 0.43 µM)	0.125 µg/mL (≈ 0.0537 µM)	2 µg/mL (≈ 0.86 µM)	0.5 µg/mL (≈ 0.215 µM)	0.125 µg/mL (≈ 0.0537 µM)	–	–	–	–	<1%
CC(=O)N[C@@H](CCN)C(=O)N[C@@H](CC(C)C)C(=O)N[C@H]1CSSC[C@@H](C(=O)N[C@H](C(N)=O)C(C)C)NC(=O)[C@H](C(C)(C)C)NC(=O)[C@@H]2CSSC[C@H](NC(=O)[C@H](Cc3ccc(O)cc3)NC1=O)C(=O)N[C@@H](CCC(=O)N[C@@H](CCN)C(=O)N[C@H](C(=O)N[C@@H](CN)C(=O)N[C@H]1CCNC(=O)[C@H]([C@@H](C)O)NC(=O)[C@H](CCN)NC(=O)[C@H](CCN)NC(=O)[C@H](CC(C)C)NC(=O)[C@@H](CC(C)C)NC(=O)[C@H](CCN)NC1=O)[C@@H](C)O)C(=O)N[C@H](CCN)C(=O)N[C@@H](CCN)C(=O)N[C@@H](Cc1c[nH]c3ccccc13)C(=O)N2 [Ex. 234] (I: Ac-[Dab]LCYCE[dDab][Dab]WC[Tle]CV-NH2 / II: [Dab]T[Dap][Dab][Dab][dL]L[Dab][Dab]T; disulfide I:3-I:12, I:5-I:10; amide I:6-II:N; lactam II:4-II:C)	0.25 µg/mL (≈ 0.0973 µM)	0.25 µg/mL (≈ 0.0973 µM)	0.5 µg/mL (≈ 0.195 µM)	0.25 µg/mL (≈ 0.0973 µM)	0.125 µg/mL (≈ 0.0487 µM)	1 µg/mL (≈ 0.389 µM)	0.25 µg/mL (≈ 0.0973 µM)	0.5 µg/mL (≈ 0.195 µM)	–	–	–	–	9%
CC(C)C[C@@H]1NC(=O)[C@@H](CC(C)C)NC(=O)[C@H](CCN)NC(=O)[C@@H](NC(=O)[C@H](CN)NC(=O)[C@@H](NC(=O)[C@H](CCN)NC(=O)CC[C@@H]2NC(=O)[C@H](CCN)NC(=O)[C@H](Cc3ccc(O)cc3)NC(=O)[C@@H](NC(=O)[C@@H](O)C(C)C)CCNC(=O)C[C@@H](C(=O)N[C@@H](CO)C(N)=O)NC(=O)[C@H](C(C)C)NC(=O)[C@H](CO)NC(=O)[C@H](Cc3c[nH]c4ccccc34)NC(=O)CNC(=O)[C@@H](CCN)NC2=O)[C@@H](C)O)CCNC(=O)[C@H]([C@@H](C)O)NC(=O)[C@H](CCN)NC(=O)[C@H](CCN)NC1=O [Ex. 347] (I: H-[Hiv][Dab]Y[Dab]E[dDab]GWSVDS-NH2 / II: [Dab]T[Dap][Dab][Dab][dL]L[Dab][Dab]T; lactam I:2-I:11, II:4-II:C; amide I:5-II:N)	0.25 µg/mL (≈ 0.108 µM)	–	0.5 µg/mL (≈ 0.215 µM)	0.25 µg/mL (≈ 0.108 µM)	–	1 µg/mL (≈ 0.431 µM)	–	–	0.125 µg/mL	0.0625 µg/mL	0.0625 µg/mL	0.125 µg/mL	<1%
CC(=O)N[C@H](C(=O)N[C@H]1CCCNC(=O)[C@@H]([C@H](C)O)NC(=O)[C@H](C(C)(C)C)NC(=O)[C@H](CO)NC(=O)[C@H](Cc2c[nH]c3ccccc23)NC(=O)[C@H](CCO)NC(=O)[C@@H](CCN)NC(=O)[C@H](CCC(=O)N[C@@H](CCN)C(=O)N[C@H](C(=O)N[C@@H](CN)C(=O)N[C@H]2CCNC(=O)[C@H]([C@@H](C)O)NC(=O)[C@H](CCN)NC(=O)[C@H](CCN)NC(=O)[C@H](CC(C)C)NC(=O)[C@@H](CC(C)C)NC(=O)[C@H](CCN)NC2=O)[C@@H](C)O)NC(=O)[C@H](CO)NC(=O)[C@H](Cc2ccc(O)cc2)NC1=O)C(C)C [Ex. 18] (I: Ac-V[Orn]YSE[dDab][hSer]WS[Tle][dT] / II: [Dab]T[Dap][Dab][Dab][dL]L[Dab][Dab]T; lactam I:2-I:C, II:4-II:C; amide I:5-II:N)	0.25 µg/mL (≈ 0.108 µM)	0.0625 µg/mL (≈ 0.0269 µM)	0.125 µg/mL (≈ 0.0539 µM)	0.25 µg/mL (≈ 0.108 µM)	0.0625 µg/mL (≈ 0.0269 µM)	0.5 µg/mL (≈ 0.215 µM)	0.125 µg/mL (≈ 0.0539 µM)	0.25 µg/mL (≈ 0.108 µM)	–	–	–	–	1%
CC(=O)N[C@H](C(=O)N[C@H]1CSSC[C@@H](C(=O)N[C@@H](CO)C(N)=O)NC(=O)[C@H](C(C)C)NC(=O)[C@@H]2CSSC[C@H](NC(=O)[C@H](Cc3ccc(O)cc3)NC1=O)C(=O)N[C@@H](CCC(=O)N[C@@H](CCN)C(=O)N[C@H](C(=O)N[C@@H](CCN)C(=O)N[C@H]1CCNC(=O)[C@H]([C@@H](C)O)NC(=O)[C@H](CCN)NC(=O)[C@H](CCN)NC(=O)[C@H](CC(C)C)NC(=O)[C@@H](CC(C)C)NC(=O)[C@H](CCN)NC1=O)[C@@H](C)O)C(=O)N[C@H](CCN)C(=O)N[C@@H](CCO)C(=O)N[C@@H](Cc1c[nH]c3ccccc13)C(=O)N2)C(C)C [Ex. 175] (I: Ac-VCYCE[dDab][hSer]WCVCS-NH2 / II: [Dab]T[Dab][Dab][Dab][dL]L[Dab][Dab]T; disulfide I:2-I:11, I:4-I:9; amide I:5-II:N; lactam II:4-II:C)	0.0625 µg/mL (≈ 0.0256 µM)	0.125 µg/mL (≈ 0.0511 µM)	0.25 µg/mL (≈ 0.102 µM)	0.25 µg/mL (≈ 0.102 µM)	0.0625 µg/mL (≈ 0.0256 µM)	0.5 µg/mL (≈ 0.205 µM)	0.125 µg/mL (≈ 0.0511 µM)	0.125 µg/mL (≈ 0.0511 µM)	–	–	–	–	1%
CC(=O)N[C@H](C(=O)N[C@H]1CCCNC(=O)[C@@H]([C@H](C)O)NC(=O)[C@H](C(C)C)NC(=O)[C@H](CO)NC(=O)[C@H](Cc2c[nH]c3ccccc23)NC(=O)[C@H](CCN)NC(=O)[C@@H](CCN)NC(=O)[C@H](CCC(=O)N[C@@H](CCN)C(=O)N[C@H](C(=O)N[C@@H](CN)C(=O)N[C@H]2CCNC(=O)[C@H]([C@@H](C)O)NC(=O)[C@H](CCN)NC(=O)[C@H](CCN)NC(=O)[C@H](CC(C)C)NC(=O)[C@@H](CC(C)C)NC(=O)[C@H](CCN)NC2=O)[C@@H](C)O)NC(=O)[C@H](CN)NC(=O)[C@H](Cc2ccc(O)cc2)NC1=O)C(C)C [Ex. 37] (I: Ac-V[Orn]Y[Dap]E[dDab][Dab]WSV[dT] / II: [Dab]T[Dap][Dab][Dab][dL]L[Dab][Dab]T; lactam I:2-I:C, II:4-II:C; amide I:5-II:N)	1 µg/mL (≈ 0.434 µM)	0.125 µg/mL (≈ 0.0542 µM)	0.25 µg/mL (≈ 0.108 µM)	0.5 µg/mL (≈ 0.217 µM)	0.25 µg/mL (≈ 0.108 µM)	2 µg/mL (≈ 0.868 µM)	0.25 µg/mL (≈ 0.108 µM)	0.5 µg/mL (≈ 0.217 µM)	–	–	–	–	1%
